# Experimental data from patent US20250388605A1, “HETEROBIFUNCTIONAL COMPOUNDS AND METHODS OF TREATING DISEASE” (Halda Therapeutics OpCo, Inc., priority 2022, published 2025).
# Tests used:
# BRD4-BD1 = target: T1, BRD4-BD1 (Homo sapiens, UniProt O60885); test: Binding affinity to BRD4-BD1 (bromoKdELECT assay); conditions: 11-point 3-fold dilution series
# T1 construct: made in house; host or cells: T7 phage grown in an E. coli host derived from the BL21 strain
# T47D cells = test: Cellular Growth Inhibition Assay for T47D Cells (CellTiter-Glo); format: cell-based, human; conditions: 72 hours
# Method in brief: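 GI50 values derive from four-parameter regression of CellTiter-Glo 2.0 luminescence, using zero luminescence as baseline. Human breast cancer T47D cells (3000/well; DMEM, 10% FBS, 0.2 units/mL insulin) were exposed for 72 h to compound dilutions at 0.5% DMSO, with dosing starting 24 h after seeding.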
Compound,Kd (BRD4-BD1) [nM],GI50 (T47D cells; Homo sapiens) [nM],GI50 (T47D cells) [nM]
"Cn1cc(-c2ccccc2Oc2cccc(N3CC(N4CCN(c5ncc(C(=O)N[C@H]6C(C)(C)[C@H](Oc7ccc(C#N)c(Cl)c7)C6(C)C)cn5)CC4)C3)c2)c2cc[nH]c2c1=O [Compound I-90, N-((1r, 3r)-3-(3-chloro-4-cyanophenoxy)-2,2,4,4-tetramethylcyclobutyl)-2-(4-(1-(3-(2-(6-methyl-7-oxo-6,7-dihydro-1H-pyrrolo[2,3-c]pyridin-4-yl)phenoxy)phenyl)azetidin-3-yl)piperazin-1-yl)pyrimidine-5-carboxamide]",> 2500,500 to 1500,
Cn1cc(-c2ccccc2Oc2cccc(OCCN3CCN(c4ncc(C(=O)N[C@H]5C(C)(C)[C@H](Oc6ccc(C#N)c(Cl)c6)C5(C)C)cn4)CC3)c2)c2cc[nH]c2c1=O [Compound I-98],> 2500,< 500,
Cn1cc(-c2cc(C(C)(C)O)ccc2Oc2cccc(N3CC(N4CCN(c5ncc(C(=O)N[C@H]6C(C)(C)[C@H](Oc7ccc(C#N)c(Cl)c7)C6(C)C)cn5)CC4)C3)c2)c2cc[nH]c2c1=O [Compound I-105],500 to 2500,500 to 1500,
Cn1cc(-c2cc(C(C)(C)O)ccc2Oc2cccc(CCCN3CCN(c4ncc(C(=O)N[C@H]5C(C)(C)[C@H](Oc6ccc(C#N)c(Cl)c6)C5(C)C)cn4)CC3)c2)c2cc[nH]c2c1=O [Compound I-110],500 to 2500,< 500,
CCS(=O)(=O)Nc1ccc(Oc2cccc(OCCOC3CCN(c4ncc(C(=O)N[C@H]5C(C)(C)[C@H](Oc6ccc(C#N)c(Cl)c6)C5(C)C)cn4)CC3)c2)c(-c2cn(C)c(=O)c3c2ccn3C)c1 [Compound I-121],> 2500,500 to 1500,
Cn1cc(-c2ccccc2Oc2cccc(OCCOC3CCN(c4ncc(C(=O)N[C@H]5C(C)(C)[C@H](Oc6ccc(C#N)c(Cl)c6)C5(C)C)cn4)CC3)c2)c2ccn(C)c2c1=O [Compound I-137],> 2500,< 500,
Cn1cc(-c2cc(C(C)(C)O)ccc2Oc2cccc(OCCC3CCN(c4ncc(C(=O)N[C@H]5C(C)(C)[C@H](Oc6ccc(C#N)c(Cl)c6)C5(C)C)cn4)CC3)c2F)c2cc[nH]c2c1=O [Compound I-142],> 2500,500 to 1500,
Cn1cc(-c2cc(C(C)(C)O)ccc2Oc2cccc(CCOC3CCN(c4ncc(C(=O)N[C@H]5C(C)(C)[C@H](Oc6ccc(C#N)c(Cl)c6)C5(C)C)cn4)CC3)c2F)c2cc[nH]c2c1=O [Compound I-147],> 2500,,< 500
Cn1cc(-c2cc(C(C)(C)O)ccc2Oc2cccc(OCCC3CCN(c4ncc(C(=O)N[C@H]5C(C)(C)[C@H](Oc6ccc(C#N)c(Cl)c6)C5(C)C)cn4)CC3)c2)c2cc[nH]c2c1=O [Compound I-156],500 to 2500,,500 to 1500
Cc1ccc(CCCOC2CCN(c3ncc(C(=O)N[C@H]4C(C)(C)[C@H](Oc5ccc(C#N)c(Cl)c5)C4(C)C)cn3)CC2)cc1Oc1ccc(C(C)(C)O)cc1-c1cn(C)c(=O)c2[nH]ccc12 [Compound I-192],> 2500,500 to 1500,
Cn1cc(-c2cc(C(C)(C)O)ccc2Oc2cccc(CCOC3CCN(c4ncc(C(=O)N[C@H]5C(C)(C)[C@H](Oc6ccc(C#N)c(Cl)c6)C5(C)C)cn4)CC3)c2)c2cc[nH]c2c1=O [Compound I-193],> 2500,,< 500
Cn1cc(-c2cc(C(C)(C)O)ccc2Oc2ccc(CCOC3CCN(c4ncc(C(=O)N[C@H]5C(C)(C)[C@H](Oc6ccc(C#N)c(Cl)c6)C5(C)C)cn4)CC3)cc2)c2cc[nH]c2c1=O [Compound I-194],> 2500,500 to 1500,
CN(CCCc1ccc(Oc2ccc(C(C)(C)O)cc2-c2cn(C)c(=O)c3[nH]ccc23)cc1)c1ncc(C(=O)N[C@H]2C(C)(C)[C@H](Oc3ccc(C#N)c(Cl)c3)C2(C)C)cn1 [Compound I-211],> 2500,< 500,

# Other lines, results leading:
Kd (BRD4-BD1) [nM],GI50 (T47D cells; Homo sapiens) [nM],GI50 (T47D cells) [nM],Compound
50 to 500,500 to 1500,,CN(c1ccc(Oc2cccc(N3CC(N4CCN(c5ncc(C(=O)N[C@H]6C(C)(C)[C@H](Oc7ccc(C#N)c(Cl)c7)C6(C)C)cn5)CC4)C3)c2F)c(-c2cn(C)c(=O)c3[nH]ccc23)c1)S(=O)(=O)C1CC1 [Compound I-91]
500 to 2500,500 to 1500,,Cn1cc(-c2ccccc2Oc2cccc(N3CC(N4CCN(c5ncc(C(=O)N[C@H]6C(C)(C)[C@H](Oc7ccc(C#N)c(Cl)c7)C6(C)C)cn5)CC4)C3)c2F)c2cc[nH]c2c1=O [Compound I-94]
500 to 2500,500 to 1500,,Cn1cc(-c2cc(C(C)(C)O)ccc2Oc2cccc(OCCN3CCN(c4ncc(C(=O)N[C@H]5C(C)(C)[C@H](Oc6ccc(C#N)c(Cl)c6)C5(C)C)cn4)CC3)c2)c2cc[nH]c2c1=O [Compound I-96]
500 to 2500,500 to 1500,,Cn1cc(-c2cc(C(C)(C)O)ccc2Oc2cccc(OCCN3CCN(c4ncc(C(=O)N[C@H]5C(C)(C)[C@H](Oc6ccc(C#N)c(Cl)c6)C5(C)C)cn4)CC3)c2F)c2cc[nH]c2c1=O [Compound I-99]
50 to 500,< 500,,"CC(C)c1ccc(Oc2cccc(OCCN3CCN(c4ncc(C(=O)NC5C(C)(C)C(Oc6ccc(C#N)c(Cl)c6)C5(C)C)cn4)CC3)c2)c(-c2cn(C)c(=O)c3[nH]ccc23)c1 (stereo not shown) [Compound I-107, N-[3-(3-chloro-4-cyano-phenoxy)-2,2,4,4-tetramethyl-cyclobutyl]-2-[4-[2-[3-[4-isopropyl-2-(6-methyl-7-oxo-1H-pyrrolo[2,3-c]pyridin-4-yl)phenoxy]phenoxy]ethyl]piperazin-1-yl]pyrimidine-5-carboxamide]"
50 to 500,< 500,,CCS(=O)(=O)Nc1ccc(Oc2cccc(N3CCN(C4CN(c5ncc(C(=O)N[C@H]6C(C)(C)[C@H](Oc7ccc(C#N)c(Cl)c7)C6(C)C)cn5)C4)CC3)c2)c(-c2cn(C)c(=O)c3[nH]ccc23)c1 [Compound I-126]
50 to 500,500 to 1500,,Cn1cc(-c2cc(C(C)(C)O)ccc2Oc2cccc(CCCN3CCN(c4ncc(C(=O)N[C@H]5C(C)(C)[C@H](Oc6ccc(C#N)c(Cl)c6)C5(C)C)cn4)CC3)c2F)c2cc[nH]c2c1=O [Compound I-143]
< 50,< 500,,CC(C)N(CC1CCN(c2ncc(C(=O)N[C@H]3C(C)(C)[C@H](Oc4ccc(C#N)c(Cl)c4)C3(C)C)cn2)CC1)[C@H]1C[C@H](Oc2cccc(Oc3ccc(C(C)(C)O)cc3-c3cn(C)c(=O)c4[nH]ccc34)c2F)C1 [Compound I-214]
< 50,< 500,,"CCS(=O)(=O)c1ccc(OC(CCCCN2CCN(c3ncc(C(=O)NC4C(C)(C)C(Oc5ccc(C#N)c(Cl)c5)C4(C)C)cn3)CC2)C2CC2)c(-c2cn(C)c(=O)c3[nH]ccc23)c1 (stereo not shown) [Compound I-223, N-[3-(3-chloro-4-cyano-phenoxy)-2,2,4,4-tetramethyl-cyclobutyl]-2-[4-[5-cyclopropyl-5-[4-ethylsulfonyl-2-(6-methyl-7-oxo-1H-pyrrolo[2,3-c]pyridin-4-yl)phenoxy]pentyl]piperazin-1-yl]pyrimidine-5-carboxamide]"
< 50,< 500,,"CCS(=O)(=O)c1ccc(OCC(CCCN2CCN(c3ncc(C(=O)NC4C(C)(C)C(Oc5ccc(C#N)c(Cl)c5)C4(C)C)cn3)CC2)C2CC2)c(-c2cn(C)c(=O)c3[nH]ccc23)c1 (stereo not shown) [Compound I-231, N-[3-(3-chloro-4-cyano-phenoxy)-2,2,4,4-tetramethyl-cyclobutyl]-2-[4-[4-cyclopropyl-5-[4-ethylsulfonyl-2-(6-methyl-7-oxo-1H-pyrrolo[2,3-c]pyridin-4-yl)phenoxy]pentyl]piperazin-1-yl]pyrimidine-5-carboxamide]"
